Earlier results as cited in US20260283918A1, “AZELAIC ACID/BETAINE/PANTHENOL SELF-RECOGNITION DES SYSTEM AND PREPARATION METHOD” (Wuxi Zhiyan Biotechnology Co., LTD, priority 2023, published 2026).

Conditions: water and oil

- solubility of azelaic acid: poor solubility in both water and oil
Compound: O=C(O)CCCCCCCC(=O)O [azelaic acid]
